Reference: US20080249144A1, “Preventive or Therapeutic Agent for Chronic Inflammatory Lung Disease” (KAKEN PHARMACEUITICAL CO., LTD., priority 2004, published 2008)

Experiments:
[1] = test system: PPE-induced pulmonary emphysema model; experiment: PPE-induced pulmonary emphysema model in mice; format: in vivo
Method: Eight-week old C57BL strain mice were anaesthetized with isoflurane. PPE (25 μg) was administered once to the lung through a cannula inserted into the trachea through the pharyngolarynx to induce a pulmonary damage. To a non-PPE administration group (normal group), saline was administered instead. In a preventive administration experiment (hereinafter referred to as a “preventive experiment”) of KP-496, drug effect was evaluated on inflammatory cells in BALF 2 days after PPE administration and by histopathological examination of the lung after 10 days. In a therapeutic administration experiment of KP-496 (hereinafter referred to as a “therapeutic experiment”), the drug effect was evaluated by histo-pathological examination of the lung and weight of the organs 14 days after PPE administration.
The medicament administration period was set from the PPE administration date to the day before autopsy in the preventive experiment and set from a predetermined day (KP-496A group: PPE administration date, KP-496B group: 3 days after PPE administration date, KP-496C group: 7 days after PPE administration date) to the day before autopsy in the therapeutic experiment. Inhalation administration of KP-496 was performed in the same manner as in Example 2. Furthermore, the normal group and the control group were allowed to spontaneously inhale saline, instead. A medicament for use in comparison, prednisolone, was orally administered in a dose of 5 mg/kg twice a day. A group consisted of 10 animals.
The animals were anaesthetized with pentobarbital and killed by exsanguination. Immediately after that, BAL of the right and left lungs was performed with 2 ml of saline. In the same manner as in Example 2, the total number of cells and the number of cells according to the cell type in the BALE were determined.
The lung was excised out from the animal killed by exsanguination in the same manner as in the above, the weight of the lung was measured. The lung was fixed in 10 vol % neutral buffered formalin solution. A pathological tissue sample was prepared in accordance in a general way. The degree of the damage of the lung tissue observed was evaluated by scoring in the same manner as in Example 2. Furthermore, the average of alveolar-space area of the entire lung tissue sample was computationally measured with image-processing software.
The average value and standard deviation of each group were calculated. Comparison between the normal group and the control group was performed by the Levene's test for equal variance and then, the t-test was performed depending on the results. To compare the control group and test substance administration groups, equal variance was first confirmed by the Levene's test and then multiple comparisons were performed in accordance with the Dunnett's test. Note that evaluation parameters with unequal variance and the damage score of the lung tissue were analyzed by nonparametric Mann-Whitney test. The significance level employed was […].

[2] = test system: vanadium pentoxide-induced bronchitis model; experiment: Vanadium pentoxide-induced bronchitis model in mice; format: in vivo; conditions: 7 days after vanadium pentoxide; compared with control
Method: Seven-week old C57BL strain male mice were used. The mouse was anaesthetized with isoflurane. Vanadium pentoxide (20 μg) was administered once to the lung through a cannula inserted into the trachea through the pharyngolarynx to induce pathology. To a non-vanadium pentoxide administration group (normal group), saline was administered, instead. KP-496 was administered by inhalation twice a day in the period from the vanadium pentoxide administration date to the day before autopsy, in the same manner as in Example 2. Furthermore, the normal group and the control group were allowed to spontaneously inhale saline in the same manner. A medicament for use in comparison, prednisolone, was orally administered at a dose of 5 mg/kg twice a day in the period from the vanadium pentoxide administration date to the day before autopsy. Note that the normal group consisted of 6 animals and the other group consisted of 10 animals. Each of the mice was anaesthetized with pentobarbital 7 days after vanadium pentoxide administration and killed by bloodletting from the abdominal aorta. The lung was excised out and fixed in 10 vol % neutral buffered formalin solution. […] The obtained value was divided by the circumferential length of the bronchial lumen (obtained in mucosal basal membrane) and the quotient was expressed as a mucus producing region area per millimeter of the bronchus. […]

COPD patients = conditions: according to the reports (Non-patent documents 7, 8 and patent document 1); cited from earlier work
human neutrophils = experiment: LTB4-induced human neutrophil migration (48-well modified Boyden chamber); format: cell-based; conditions: test substance 10 μmol/L; 10 nmol/L LTB4
Method: Leukocytes were collected from human peripheral blood samples (20 mL of venous blood was taken by a doctor) were obtained from 4 healthy adults (male). They received sufficient information on the purpose of the experiment and gave informed consent in advance. An equivalent amount of 3% dextran (M.W. 208000) saline solution was added to the heparinized blood thus obtained and the mixture was kept to stand for one hour. Thereafter, the supernatant was collected and centrifuged at 150 g for 5 minutes at 4° C. The supernatant was discarded and the pellet was repeatedly twice haemolysed. To explain in detail, 4 mL of an ice-cooled 0.2% NaCl solution was added, quickly suspended and allowed to stand for 20 to 30 seconds. Thereafter, 4 mL of an ice-cooled 1.6% NaCl solution was added to the suspension solution to return the solution to the isotonic condition. After centrifugation was performed at 150 g for 5 minutes at 4° C., the same treatment was repeated. The cell pellet obtained was finally suspended in a buffer (Hank's solution containing 0.1% FBS) and subjected to an experiment.
This experiment was performed using a 48-well modified Boyden chamber (Neuro Probe). To explain in detail, the wells of the bottom plate of the chamber were filled with 25 μl of vehicle solution containing 10 nmol/L of LTB4. A polycarbonate filter (PVP-free, pore size: 3 μm) was placed on the bottom plate. The top plate of the chamber was mounted and each well of the upper plate was filled with 45 μL of a leukocyte suspension solution (1.0×10^6 cells/mL) prepared with the buffer. Immediately after that, 5 μL of a test substance (10 fold concentration of a final concentration) was added to the wells. […] The numbers of cells were counted in 4 visual fields (×400) per well and the average of them was regarded as the number of migrated cells. Each test substance was evaluated using 3 wells. The average value of these wells was calculated and regarded as the value of each substance.
The average and standard deviation of each group were calculated. […]

Row | weights of the organs (liver, spleen and thymus gland) ([1]; compared to control group) | SMILES | total number of cells in BALF ([1]; 2 days after PPE administration, preventive experiment) | number of eosinophils in BALF ([1]; 2 days after PPE, compared to control group) | increase in lung weight ([1]; preventive experiment, 10 days after PPE) | damage score of the lung ([1]; preventive experiment, 10 days after PPE, compared with control group) | body weight change ([1]; preventive experiment, up to 10 days after PPE, compared to control group) | increase of the average of the alveolar-space area ([1]; preventive experiment, compared to control) | increase of PAS positive area (mucus producing region of intrapulmonary bronchial epithelium) [2] | respiratory function of COPD patients (COPD patients) | suppression of LTB4-induced neutrophil migration (human neutrophils)
1 | significantly decreased | C[C@]12C=CC(=O)C=C1CC[C@@H]1[C@@H]2[C@@H](O)C[C@@]2(C)[C@H]1CC[C@]2(O)C(=O)CO [prednisolone, reference compound] | 4.3±2.1 ×10^5 cells | significantly decreased | significantly suppressed | significantly decreased | significant reduction compared to the control group | significantly suppressed | significantly suppressed |  | 
2 |  | CC1=C(C)C(=O)C(C(CCCCCC(=O)O)c2ccccc2)=C(C)C1=O (centres unmarked) [seratorodast, reference compound] |  |  |  |  |  |  |  | improves the respiratory function | did not suppress the migration at all
3 |  | COc1cc(C(=O)NS(=O)(=O)c2ccccc2C)ccc1Cc1cn(C)c2ccc(NC(=O)OC3CCCC3)cc12 [zafirlukast] |  |  |  |  |  |  |  | improves the respiratory function | 
